Biological target: P. falciparum apicoplast DNA polymerase (Pf-apPOL) (Plasmodium falciparum, UniProt Q8ILY1)
Test: Fluorescence-based high-throughput DNA polymerase assay (molecular beacon), primary screen and dose-response;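 as to % inhibition Apol 40': compound concentration given in µM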
Type: biochemical
Conditions: for DNA Pol: 90 min, 10 µM
Method in brief: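 Single-point screening used 10 µM compound with 20 nM polymerase, 20 nM hairpin substrate and 6 µM dNTPs for 90 min at 25 °C. Confirmatory titrations (2.5–80 µM) followed fluorescence at three times, and IC50 was derived from a fit including a cooperativity term n.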

[1] = 'DNA Pol' of the 186 hits list (primary screen value)
[2] = first dose-response set, concentration 10

Sequence of P. falciparum apicoplast DNA polymerase (Pf-apPOL) (Q8ILY1 entry or part of it): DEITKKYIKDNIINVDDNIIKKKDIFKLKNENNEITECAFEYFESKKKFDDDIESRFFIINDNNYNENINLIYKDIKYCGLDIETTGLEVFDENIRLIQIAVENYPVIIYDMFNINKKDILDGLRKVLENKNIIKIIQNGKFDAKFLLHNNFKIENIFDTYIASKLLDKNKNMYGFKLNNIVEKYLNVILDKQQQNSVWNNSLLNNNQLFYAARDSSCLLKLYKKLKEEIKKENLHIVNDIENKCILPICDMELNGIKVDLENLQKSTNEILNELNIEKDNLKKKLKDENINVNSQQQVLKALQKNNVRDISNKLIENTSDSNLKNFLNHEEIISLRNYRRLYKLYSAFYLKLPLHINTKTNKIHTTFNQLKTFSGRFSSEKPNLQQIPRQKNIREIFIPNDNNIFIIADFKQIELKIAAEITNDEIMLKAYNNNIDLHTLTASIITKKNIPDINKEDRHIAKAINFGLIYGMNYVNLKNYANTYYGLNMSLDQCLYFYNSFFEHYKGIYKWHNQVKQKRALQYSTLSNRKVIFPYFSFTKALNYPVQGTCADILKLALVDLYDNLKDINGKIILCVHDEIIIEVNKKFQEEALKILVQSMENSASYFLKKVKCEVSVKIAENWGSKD

Which “DNA Pol” value [1] does the source give for `COc1ccc(C(=O)N2CCc3c(nc4cc(-c5ccccc5Cl)[nH]n4c3=O)C2)cn1` [Molecule 26, COc1ccc(cn1)C(=O)N1CCc2c(C1)nc1n(c2=O)[nH]c(c1)c1ccccc1Cl] here?
Its value is 36.

And the “DNA Pol” value (DNA Pol (primary screen value))?
Its value is 36.

And the “% inhibition Apo pol 10'” value (DRC-1, concentration 2.5)?
The value was 0.687%.

And the “% inhibition Apo pol 10'” value (DRC-1, concentration 5)?
The value was 20%.

What about the “% inhibition Apo pol 10'” value (DRC-1, concentration 10) of the same compound?
The value was 48%.

What about the “% inhibition Apo pol 10'” value (DRC-1, concentration 20) of the same compound?
The value was 85%.

What about the “% inhibition Apo pol 10'” value (DRC-1, concentration 40) of the same compound?
The value was 91%.

And the “% inhibition Apo pol 10'” value (DRC-1, concentration 80)?
Its value is 87%.

What about the “% inhibition Apol 90'” value (DRC-1, concentration 2.5) of the same compound?
The value was -2.83%.

And the “% inhibition Apol 90'” value (DRC-1, concentration 5)?
The value was 11%.

What about the “% inhibition Apol 90'” value (DRC-1, concentration 10) of the same compound?
Its value is 33%.

And the “% inhibition Apol 90'” value (DRC-1, concentration 20)?
The value was 74%.

What about the “% inhibition Apol 90'” value (DRC-1, concentration 40) of the same compound?
Its value is 82%.

And the “% inhibition Apol 90'” value (DRC-1, concentration 80)?
The value was 82%.

And the “% inhibition apPOL 180'” value (DRC-1, concentration 2.5)?
The value was -5.33%.

What about the “% inhibition apPOL 180'” value (DRC-1, concentration 5) of the same compound?
The value was 3.47%.

What about the “% inhibition apPOL 180'” value (DRC-1, concentration 10) of the same compound?
Its value is 20%.

What about the “% inhibition apPOL 180'” value (DRC-1, concentration 20) of the same compound?
Its value is 60%.

What about the “% inhibition apPOL 180'” value (DRC-1, concentration 40) of the same compound?
Its value is 70%.

And the “% inhibition apPOL 180'” value (DRC-1, concentration 80)?
Its value is 71%.

What about the “% inhibition Apo pol 5'” value (DRC-2, concentration 2.5) of the same compound?
The value was 7%.

And the “% inhibition Apo pol 5'” value (DRC-2, concentration 5)?
The value was 7%.

And the “% inhibition Apo pol 5'” value (DRC-2, concentration 10)?
Its value is 28%.

And the “% inhibition Apo pol 5'” value (DRC-2, concentration 20)?
Its value is 47%.

And the “% inhibition Apo pol 5'” value (DRC-2, concentration 40)?
The value was 54%.

What about the “% inhibition Apo pol 5'” value (DRC-2, concentration 80) of the same compound?
Its value is 47%.

And the “% inhibition Apol 40'” value (DRC-2, concentration 2.5)?
The value was 6.48%.

And the “% inhibition Apol 40'” value (DRC-2, concentration 5)?
The value was 6.59%.

What about the “% inhibition Apol 40'” value (DRC-2, concentration 10) of the same compound?
Its value is 30%.

What about the “% inhibition Apol 40'” value (DRC-2, concentration 20) of the same compound?
The value was 56%.

And the “% inhibition Apol 40'” value (DRC-2, concentration 40)?
The value was 64%.

And the “% inhibition Apol 40'” value (DRC-2, concentration 80)?
Its value is 62%.

What about the “% inhibition ApPOL 90'” value (DRC-2, concentration 2.5) of the same compound?
Its value is 6%.

And the “% inhibition ApPOL 90'” value (DRC-2, concentration 5)?
The value was 4.56%.

And the “% inhibition ApPOL 90'” value (DRC-2, concentration 10)?
Its value is 28%.

What about the “% inhibition ApPOL 90'” value (DRC-2, concentration 20) of the same compound?
The value was 56%.

And the “% inhibition ApPOL 90'” value (DRC-2, concentration 40)?
The value was 63%.

And the “% inhibition ApPOL 90'” value (DRC-2, concentration 80)?
The value was 63%.

And the “% inhibition apPOL 180'” value (DRC-2, concentration 2.5)?
The value was 3.22%.

What about the “% inhibition apPOL 180'” value (DRC-2, concentration 5) of the same compound?
Its value is 3%.

And the “% inhibition apPOL 180'” value (DRC-2, concentration 10)?
Its value is 20%.

What about the “% inhibition apPOL 180'” value (DRC-2, concentration 20) of the same compound?
Its value is 48%.

And the “% inhibition apPOL 180'” value (DRC-2, concentration 40)?
The value was 55%.

And the “% inhibition apPOL 180'” value (DRC-2, concentration 80)?
The value was 57%.

And the “% inhibition Apo pol 10'” value (first dose-response set, concentration 5)?
Its value is 20%.

And the “% inhibition Apo pol 10'” value [2]?
Its value is 48%.

What about the “% inhibition Apol 90'” value (first dose-response set, concentration 40) of the same compound?
Its value is 82%.

What about the “% inhibition Apol 90'” value (first dose-response set, concentration 80) of the same compound?
The value was 82%.

And the “% inhibition apPOL 180'” value [2]?
The value was 20%.

What does the source list for `O=C1c2ccccc2C(=O)N1Oc1ccc([N+](=O)[O-])c([N+](=O)[O-])c1` [Molecule 66, O=N(=O)c1cc(ccc1N(=O)=O)ON1C(=O)c2c(C1=O)cccc2]?
DNA Pol [1]: 72; DNA Pol (DNA Pol (primary screen value)): 72; % inhibition Apo pol 10' (DRC-1, concentration 2.5): 7.12%; % inhibition Apo pol 10' (DRC-1, concentration 5): 12.8299%; % inhibition Apo pol 10' (DRC-1, concentration 10): 14.545%; % inhibition Apo pol 10' (DRC-1, concentration 20): 24.992%; % inhibition Apo pol 10' (DRC-1, concentration 40): 53.6709%; % inhibition Apo pol 10' (DRC-1, concentration 80): 72.2964%; % inhibition Apol 90' (DRC-1, concentration 2.5): 2.278%; % inhibition Apol 90' (DRC-1, concentration 5): 9.738%; % inhibition Apol 90' (DRC-1, concentration 10): 13.1271%; % inhibition Apol 90' (DRC-1, concentration 20): 22.9091%; % inhibition Apol 90' (DRC-1, concentration 40): 49.4397%; % inhibition Apol 90' (DRC-1, concentration 80): 69.1434%; % inhibition apPOL 180' (DRC-1, concentration 2.5): -1.453%; % inhibition apPOL 180' (DRC-1, concentration 5): 3.779%; % inhibition apPOL 180' (DRC-1, concentration 10): 7.291%; % inhibition apPOL 180' (DRC-1, concentration 20): 17.0641%; % inhibition apPOL 180' (DRC-1, concentration 40): 43.6341%; % inhibition apPOL 180' (DRC-1, concentration 80): 66.4384%; % inhibition Apo pol 5' (DRC-2, concentration 2.5): 1.26%; % inhibition Apo pol 5' (DRC-2, concentration 5): 6%; % inhibition Apo pol 5' (DRC-2, concentration 10): 12%; % inhibition Apo pol 5' (DRC-2, concentration 20): 27%; % inhibition Apo pol 5' (DRC-2, concentration 40): 40%; % inhibition Apo pol 5' (DRC-2, concentration 80): 51%; % inhibition Apol 40' (DRC-2, concentration 2.5): 6.34%; % inhibition Apol 40' (DRC-2, concentration 5): 11%; % inhibition Apol 40' (DRC-2, concentration 10): 18%; % inhibition Apol 40' (DRC-2, concentration 20): 35%; % inhibition Apol 40' (DRC-2, concentration 40): 48%; % inhibition Apol 40' (DRC-2, concentration 80): 62%; % inhibition ApPOL 90' (DRC-2, concentration 2.5): 5%; % inhibition ApPOL 90' (DRC-2, concentration 5): 9.49%; % inhibition ApPOL 90' (DRC-2, concentration 10): 17%; % inhibition ApPOL 90' (DRC-2, concentration 20): 36%; % inhibition ApPOL 90' (DRC-2, concentration 40): 50%; % inhibition ApPOL 90' (DRC-2, concentration 80): 66%; % inhibition apPOL 180' (DRC-2, concentration 2.5): 3%; % inhibition apPOL 180' (DRC-2, concentration 5): 5.62%; % inhibition apPOL 180' (DRC-2, concentration 10): 13%; % inhibition apPOL 180' (DRC-2, concentration 20): 32%; % inhibition apPOL 180' (DRC-2, concentration 40): 48%; % inhibition apPOL 180' (DRC-2, concentration 80): 68%
